Patent US8609652B2, “Method of administering a methylene blue-curcumin analog for the treatment of alzheimer's disease” (DePuy Synthes Products, LLC, priority 2009, dated 2013)
“Also recorded” adds a separate entry of the source. Structures can show the parent of a compound that is named as a salt. Where two headings read alike, the source gives them in different places.

Experiments:
PC12 cells, βA (25-35) = conditions: cited from earlier work; for anti-BA (25-35) ED50: Kim; for anti-βA (25-35) ED50: Park, concentration required to achieve 50% cell viability
PC12 cells = assay: relative potency versus curcumin in in vitro protection of PC12 cells against beta amyloid insult; format: cell-based
Text: Each of the parent compounds may be obtained by the methods disclosed in Park.
It is further observed that both of these qualities can be placed into the same molecule (35).

PC12 cells, βA (1-42) = conditions: cited from earlier work; for anti-BA (1-42) ED50: Kim; for anti-βA (1-42) ED50: Park
UGT enzymes = conditions: cited from earlier work
[1] = cited from earlier work
[2] = target: plasma membrane binding sites for resveratrol; conditions: rat brain; cited from earlier work
rat hippocampal neurons = conditions: cited from earlier work
[3] = system: cultured hippocampal cells; conditions: cited from earlier work
[4] = cited from earlier work; remark: listed apart in the source
[5] = cited from earlier work; for Parent Solubility: parent phenol
[6] = cited from earlier work; remark: listed apart in the source
[7] = cited from earlier work; remark: listed apart in the source
[8] = cited from earlier work; for peak cerebrospinal fluid (CSF) concentration of estradiol: in vivo, 1 mg/kg
AD patients' macrophages = conditions: cited from earlier work
UGT1A1 = target: T1, UGT1A1 (Homo sapiens, UniProt P22309); conditions: about one hour after exposure; cited from earlier work
T1 sequence (P22309 26-533): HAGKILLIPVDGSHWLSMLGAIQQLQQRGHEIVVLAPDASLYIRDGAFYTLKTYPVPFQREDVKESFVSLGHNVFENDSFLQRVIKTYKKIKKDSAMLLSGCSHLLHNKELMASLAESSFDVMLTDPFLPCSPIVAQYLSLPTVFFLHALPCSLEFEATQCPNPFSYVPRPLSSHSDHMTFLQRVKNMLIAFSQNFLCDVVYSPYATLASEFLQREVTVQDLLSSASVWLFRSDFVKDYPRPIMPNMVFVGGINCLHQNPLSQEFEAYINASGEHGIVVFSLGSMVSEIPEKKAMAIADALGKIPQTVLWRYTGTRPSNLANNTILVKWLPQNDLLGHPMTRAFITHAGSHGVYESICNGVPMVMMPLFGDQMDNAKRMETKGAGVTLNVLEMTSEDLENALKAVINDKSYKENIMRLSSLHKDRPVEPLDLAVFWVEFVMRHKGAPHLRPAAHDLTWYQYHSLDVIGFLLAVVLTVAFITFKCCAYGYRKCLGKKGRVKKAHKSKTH

MRP2 = MRP2 (Homo sapiens, UniProt Q92887); conditions: read-out: IC50, MRP-2-mediated transport; Wortelboer; cited from earlier work
MRP2, sequence (Q92887 whole entry): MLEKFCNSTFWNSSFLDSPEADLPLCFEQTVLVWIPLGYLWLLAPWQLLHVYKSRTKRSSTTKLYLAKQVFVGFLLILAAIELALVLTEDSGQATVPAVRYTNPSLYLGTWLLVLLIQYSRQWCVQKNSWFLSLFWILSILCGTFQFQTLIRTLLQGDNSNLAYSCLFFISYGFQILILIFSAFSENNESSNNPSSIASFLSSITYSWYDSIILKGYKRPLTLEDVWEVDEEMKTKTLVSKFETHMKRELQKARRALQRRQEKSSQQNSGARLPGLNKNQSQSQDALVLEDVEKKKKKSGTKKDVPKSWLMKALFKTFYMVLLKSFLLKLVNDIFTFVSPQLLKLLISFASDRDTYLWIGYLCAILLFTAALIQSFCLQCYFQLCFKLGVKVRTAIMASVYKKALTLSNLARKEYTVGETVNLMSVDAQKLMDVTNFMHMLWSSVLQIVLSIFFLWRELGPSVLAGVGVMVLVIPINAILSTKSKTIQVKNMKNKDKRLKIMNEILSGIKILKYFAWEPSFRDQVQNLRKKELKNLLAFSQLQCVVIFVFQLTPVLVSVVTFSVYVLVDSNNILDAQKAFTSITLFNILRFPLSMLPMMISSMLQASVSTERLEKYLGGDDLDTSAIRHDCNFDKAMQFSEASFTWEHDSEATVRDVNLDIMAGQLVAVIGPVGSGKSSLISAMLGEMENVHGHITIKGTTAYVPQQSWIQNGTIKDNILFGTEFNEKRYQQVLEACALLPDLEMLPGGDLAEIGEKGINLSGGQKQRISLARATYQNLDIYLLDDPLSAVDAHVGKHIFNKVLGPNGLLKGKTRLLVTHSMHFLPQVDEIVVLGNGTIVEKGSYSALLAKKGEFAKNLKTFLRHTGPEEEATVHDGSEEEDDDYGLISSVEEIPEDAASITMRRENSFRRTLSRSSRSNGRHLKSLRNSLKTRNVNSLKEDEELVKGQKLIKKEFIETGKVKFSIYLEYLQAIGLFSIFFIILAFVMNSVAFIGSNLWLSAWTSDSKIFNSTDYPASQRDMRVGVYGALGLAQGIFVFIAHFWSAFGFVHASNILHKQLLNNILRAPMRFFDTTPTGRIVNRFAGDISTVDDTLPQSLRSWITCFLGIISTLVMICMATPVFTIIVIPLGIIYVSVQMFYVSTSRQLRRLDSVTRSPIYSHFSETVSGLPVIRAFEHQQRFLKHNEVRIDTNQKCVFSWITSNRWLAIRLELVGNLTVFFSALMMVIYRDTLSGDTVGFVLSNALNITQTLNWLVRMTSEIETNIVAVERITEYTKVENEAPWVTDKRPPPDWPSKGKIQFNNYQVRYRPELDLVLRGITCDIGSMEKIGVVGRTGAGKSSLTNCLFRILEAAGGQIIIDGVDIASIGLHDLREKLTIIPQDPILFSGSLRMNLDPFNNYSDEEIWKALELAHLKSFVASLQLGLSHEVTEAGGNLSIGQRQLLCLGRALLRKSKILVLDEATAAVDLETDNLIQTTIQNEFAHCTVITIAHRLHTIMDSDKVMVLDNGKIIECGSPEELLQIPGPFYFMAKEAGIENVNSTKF

[9] = brain tissue concentration after curcumin injection (Wang); conditions: injection of 30 mg/kg
[10] = cited from earlier work; for serum Cmax: volunteers
[11] = oral dosing, cited from earlier work
[12] = predicted curcumin levels from transdermal iontophoresis of charged curcumin prodrugs; format: in vivo, human
amyloid plaques = conditions: injected peripherally, aged Tg mice; cited from earlier work
[13] = in vivo, 1 mg/kg
Text: In some embodiments, the water-soluble ester prodrug is created by reacting the phenolic parent compound with dimethylglycine. The literature reports rendering lipophilic phenolic compounds water soluble by reacting the phenolic parent compound with dimethylglycine. […]. Al-Ghananeem concluded that the prodrug provides for targeted intranasal delivery of 17B-estradiol to the brain.

[14] = system: enzymatic glucuronidation activity; conditions: concentrations in excess of about 10 mM; cited from earlier work
[15] = cited from earlier work; remark: listed apart in the source
[16] = carbamazepine peak brain tissue concentration by route (Barakat)
[17] = reservoir concentration about 25-50 mg/ml

COc1cc(C=CC(=O)CC(=O)C=Cc2ccc(O)cc2)ccc1O [compound 32, 1-(4-hydroxy-3-methoxyphenyl)-7-(4-hydroxyphenyl)-1,6-heptadiene-3,5-dione]
anti-BA (25-35) ED50 (PC12 cells, βA (25-35)): 4.7 ± 0.1 µg/mL
anti-βA (25-35) ED50 (PC12 cells, βA (25-35)): 4.0 ± 0.5 µg/mL
fold more potent than curcumin as neuroprotectant against beta amyloid (PC12 cells; analysis of the Kim data): ~1.5 fold
anti-BA (1-42) ED50 (PC12 cells, βA (1-42)): 4.2 ± 0.3 µg/mL
anti-βA (1-42) ED50 (PC12 cells, βA (1-42)): 5.0 ± 0.5 µg/mL

Triton X-100
inhibition of several UGT enzymes (UGT enzymes): nearly fully inhibited

Oc1ccc(C=Cc2cc(O)cc(O)c2)cc1 [resveratrol]
octanol/water partition coefficient log P [1]: about 3.14
Ki [2]: 102 nM
concentration with neuroprotective effect against beta amyloid-induced neurotoxicity (rat hippocampal neurons): 20 µM
concentration protecting against nitric oxide related neurotoxicity [3]: 5 to 25 µM
oral bioavailability [4]: about zero
solubility in water [5]: < 10 mM

COc1cc(/C=C/C(=O)COC(=O)/C=C/c2ccc(O)c(OC)c2)ccc1O [compound 31, 4″-(3′″-methoxy-4′″-hydroxyphenyl)-2″-oxo-3″-enebutanyl3-(3′-methoxy-4′hydroxyphenyl)propenoate]
anti-βA (25-35) ED50 (PC12 cells, βA (25-35)): 1.0 ± 0.3 µg/mL
fold more potent than curcumin as neuroprotectant against beta amyloid (PC12 cells; analysis of the Park data): ~5 fold
anti-βA (1-42) ED50 (PC12 cells, βA (1-42)): 2.0 ± 0.4 µg/mL

CCCCOC(=O)[C@@H](N)Cc1ccc(O)c(O)c1 [L-dopa butyl ester]
estimated time for 10% decomposition ([6]; pH 4.4, 0.05M phosphate buffer, 10° C.): 2.7 years

CCN(CC)CCC(=O)Oc1ccc2c(c1)CC[C@@H]1[C@@H]2CC[C@]2(C)[C@@H](O)CC[C@@H]12.Cl [3-DEAPE2HCl, 3-N,N-diethylamino propionyl ester hydrochloride]
water solubility of estradiol ester prodrug ([5]; dimethylglycine ester where the label is estradiol): about 20 mg/ml

CCCN(CCC)C1CCc2c(O)cccc2C1 (centres unmarked) [5-OH-DPAT]
Flux ([7]; 0.5 mg/ml): 78.4 nmol/cm/h
Flux ([7]; 1.3 mg/ml): 187.6 nmol/cm/h
Flux ([7]; 2.3 mg/ml): 318.2 nmol/cm/h
Flux [7]: 90 μg/(cm^2 · h)

Nc1nc2c(ncn2COCCO)c(=O)[nH]1 [Acyclovir]
solubility in water of the unmodified compound [5]: 1400 µg/mL

C[C@]12CC[C@@H]3c4ccc(O)cc4CC[C@H]3[C@@H]1CC[C@@H]2O [17β-estradiol]
CSF concentration of 17B-estradiol, intranasal versus comparable intravenous dose of the prodrug ([8]; dimethylglycine ester prodrug): 5-8 fold
octanol/water partition coefficient log P [1]: 3.1-4.0

O=C(C=Cc1ccc(O)cc1)CC(=O)C=Cc1ccc(O)cc1 [compound 33, 1,7-bis(4-hydroxyphenyl)-1,6-heptadiene-3,5-dione]
anti-BA (25-35) ED50 (PC12 cells, βA (25-35)): 3.5 ± 0.2 µg/mL
anti-βA (25-35) ED50 (PC12 cells, βA (25-35)): 2.0 ± 0.6 µg/mL
optimum concentration (AD patients' macrophages): 0.1 µM
fold more potent than curcumin as neuroprotectant against beta amyloid (PC12 cells; analysis of the Kim data): ~2 fold
fold more potent than curcumin as neuroprotectant against beta amyloid (PC12 cells; analysis of the Park data): 3 fold
anti-BA (1-42) ED50 (PC12 cells, βA (1-42)): 3.0 ± 0.3 µg/mL
anti-βA (1-42) ED50 (PC12 cells, βA (1-42)): 3.5 ± 0.7 µg/mL

CC(C)NCC(O)COc1ccc(CC(N)=O)cc1 (centres unmarked) [Atenolol]
Flux [7]: 400 μg/(cm^2 · h)

COc1cc(/C=C/C(=O)CC(=O)/C=C/c2ccc(O)c(OC)c2)ccc1O [curcumin, (E,E)-1,7-bis(4-hydroxy-3-methoxyphenyl)-1,6-heptadiene-3,5,-dione]
inhibition of UGT1A1 (UGT1A1): about 95%
octanol/water partition coefficient log P [1]: ~3
IC50 (MRP2): 5000 nM
peak curcumin concentration in brain tissue (molar) [9]: about 0.40 uM
AUC ([10]; Shoba, Oral + piperine): 80 ng·h/mL
AUC ([10]; Shoba, Oral Dosing): 4 ng·h/mL
serum Cmax ([10]; Shoba, 2 g/day oral curcumin supplemented with piperine, second of two values): 180 ng/mL
serum Cmax ([10]; Shoba, 2 g/day oral curcumin, first of two values): 6 ng/mL
AUC ([10]; Vareed, Oral Dosing): ~30 ng·h/mL
area-under-the-curve (AUC) ([10]; dose of about 11 g, healthy volunteers, conjugated curcumin (Vareed)): about 30 μg/ml·hr
clearance ([10]; oral dosing of curcumin plus piperine (Shoba)): 7.33 L/h
clearance ([11]; curcumin alone (Shoba)): 495 L/h
clearance ([11]; curcumin with piperine (Shoba)): 713 L/h
predicted flux ([12]; divalent curcumin salt): about 800 μg/(cm^2·h)
predicted plasma concentration ([12]; divalent curcumin salt): about 0.3 μM
predicted flux [12, 17]: about 400 μg/(cm^2·h)
predicted plasma concentration [12, 17]: about 60 ng/ml; also recorded: about 0.14 μM
predicted flux ([12]; worst case): about 35 μg/(cm^2·h)
predicted plasma concentration ([12]; worst case): about 5 ng/ml
predicted plasma concentration ([12]; worst case, flux 35, 50 cm^2, clearance 350 L/hr): 0.012 µM
blood brain barrier crossing and plaque binding (amyloid plaques): crossed the blood brain barrier and bound amyloid plaques
solubility in water of the unmodified compound [5]: about 0.004 mg/ml

O=C(C=Cc1ccc(O)cc1)CC(=O)CCc1ccc(O)cc1 [compound 34, 1,7-bis(4-hydroxyphenyl)-1-heptene-3,5-dione]
anti-βA (25-35) ED50 (PC12 cells, βA (25-35)): 0.5 ± 0.2 µg/mL
fold more potent than curcumin as neuroprotectant against beta amyloid (PC12 cells; analysis of the Park data): ~10 fold
anti-βA (1-42) ED50 (PC12 cells, βA (1-42)): 1.0 ± 0.3 µg/mL

CCCCCCC(C)(C)c1cc(O)c2c(c1)OC(C)(C)[C@H]1CC=C(CO)C[C@H]21 [dexanabinol]
Parent Solubility [5]: 2000 to 7000 µg/mL

CC(C)c1cccc(C(C)C)c1OC(=O)[C@@H]1CCCN1 [L-proline ester of propofol]
solubility of the prodrug [5]: about 1.1 mmol/ml

O=C(O)c1ccccc1O [Salicylic Acid]
Flux [7]: 41.17 μg/(cm^2 · h)

CN(C)CCCC(=O)Oc1ccc2c(c1)CC[C@@H]1[C@@H]2CC[C@]2(C)[C@@H](O)CC[C@@H]12.Cl [3-DMABE2-HCl, 3-N,N dimethylamino butyl ester HCl]
peak cerebrospinal fluid (CSF) concentration of estradiol [8]: about 66 ng/ml
peak CSF concentration (molar) [13]: ~0.15 µM

C[C@]12CC[C@H]3[C@@H](CCC4=CC(=O)CC[C@@]43C)[C@@H]1CC[C@@H]2OC(=O)[C@@H]1CCC[N+]1(C)C [testosterone-17β-stachydrine ester, chloride salt]
iontophoretic flux [7]: about 40 μg/(cm^2·h)

CC(C)(C)NC[C@H](O)COc1nsnc1N1CCOCC1 [Timolol]
Flux ([7]; reservoir 10 mg/ml, 2 ml): 200 μg/(cm^2 · h)
Flux ([7]; reservoir 20 mg/ml, 2 ml): 250 μg/(cm^2 · h)

[Mg+2] [Mg^+2]
inhibition of enzymatic glucuronidation activity [14]: about 85%

C[C@]12CC[C@H](O)CC1=CC[C@@H]1[C@@H]2CC[C@]2(C)C(=O)CC[C@@H]12 [DHEA]
octanol/water partition coefficient log P [1]: 1.54

NC(=O)N1c2ccccc2C=Cc2ccccc21 [Carbamazepine]
Peak Brain Tissue ([15]; Intranasal, 0.2 mg/kg): 12 µg/g
Peak Brain Tissue ([15]; Intravenous, 8.0 mg/kg): 4 µg/g
Peak Brain Tissue ([15]; Oral, 16 mg/kg): 3 µg/g
Peak Brain Tissue, ~uM ([16]; Intranasal, 0.2 mg/kg): ~48 µM
Peak Brain Tissue, ~uM ([16]; Intravenous, 8.0 mg/kg): ~16 µM
Peak Brain Tissue, ~uM ([16]; Oral, 16 mg/kg): ~12 µM
peak brain tissue concentration, intranasal versus oral dosing ([16]; in vivo, po): about four times higher

C[C@]12CC[C@H]3[C@@H](CCC4=CC(=O)CC[C@@]43C)[C@@H]1CC[C@@H]2O [testosterone]
Flux [7]: 40 μg/(cm^2 · h)
Parent Solubility [5]: 10 µg/mL

CN(C)CCCC(=O)O[C@H]1CC[C@H]2[C@@H]3CCc4cc(O)ccc4[C@H]3CC[C@]12C.Cl [17-DMABE2HCl, 17-N,N dimethylamino butyl ester HCl]
peak cerebrospinal fluid (CSF) concentration of estradiol [8]: about 30 ng/ml
shelf life of nasal spray solution ([6]; pH 4, 25° C.): approximately 19 months
peak CSF concentration (molar) [13]: about 0.075 μM

OCCOCCN1CCN(C(c2ccccc2)c2ccc(Cl)cc2)CC1 (centres unmarked) [hydroxyzine.HCl]
octanol:water partition coefficient log Doct/pH 7.4 ([1]; pH 7.4): 2.37-2.87
